System: MDA-MB-453 cells
Assay: Pharmacodynamic evaluation in NOD SCID mouse model with subcutaneous xenograft tumor of MDA-MB-453 cells
Type: in vivo
Details: oral, twice a day
Description: Experimental Example 6: Pharmacodynamic Evaluation of the Compound According to the Present Invention in NOD SCID Mouse Model with Subcutaneous Xenograft Tumor of MDA-MB-453 Cells
MDA-MB-453 cell lines were cultured in Leibovitz's L-15 medium+10% fetal bovine serum+1% […] at 37° C. under 5% CO2, and passaged once a week. When the cell saturation was between 80% and 90%, and the required quantity was reached, the cells were collected, counted, and inoculated.
When the number of cells in the logarithmic growth phase reached the required amount for the experiment, the cells were collected, and centrifuged at 1000 rpm for 5 minutes to remove the supernatant. The cells were resuspended in the medium, and counted using a cell counter. Based on the counting results, the original solution was diluted to obtain cell suspension at a concentration of 1*10^8 cells/mL. The cell viability was 94.55%, P14 generation. The diluted cell suspension and matrix gel were diluted in a 1:1 ratio, and after mixing, placed on ice. a 1 mL sterile syringe was used to transfer the suspension. 0.2 mL of cell suspension was subcutaneously inoculated into the right axilla of each mouse. Each mouse was inoculated with 1*10^7 MDA-MB-453 cells.
After inoculation, the tumor growth state was observed daily. When the average volume reached about 157.14 mm^3, mice were randomly divided into groups based on tumor size and body weight for administration. The same dose of solvent was given to the control group. The day on which tumor cells were inoculated was defined as Day 0.
The health and mortality status of animals was daily monitored, including tumor growth, activity ability, diet, weight, eyes, hair, and other abnormal behaviors. Body weight was measured daily, while tumor volume was measured twice a week. The tumor volume was measured using a vernier caliper, and the formula is TV=0.5 a×b^2, wherein a is the long diameter of the tumor, and b is the short diameter of the tumor. After reaching the experimental endpoint, plasma samples were collected from each group at pre-determined time points for determining the plasma concentration. After euthanizing mice, tumors were collected, photographed, weighed, and frozen.
Relative tumor proliferation rate, T/C (%), refers to the percentage ratio of tumor volume or weight between the treatment group and the control group at a certain time point. The calculation formula is: T/C %=TRTV/CRTV×100%
wherein, TRTV: the average relative tumor volume (RTV) of the treatment group; CRTV: the average relative tumor volume of the control group; (RTV): RTV=Vt/V0, V0 is the tumor volume of the animal at the time of grouping, and Vt is the tumor volume of the animal after treatment. […]

Structure (SMILES)	TGI % after administrating for 21 days (25 mg/kg)	TGI % after administrating for 21 days (75 mg/kg)
Cc1cc([C@@H](C)Nc2ccc(Cl)nc2C(=O)O)c2nc(-c3ccc(F)cn3)n(C)c(=O)c2c1 [Compound 66, (R)-6-chloro-3-((1-(2-(5-fluoropyridin-2-yl)-3,6-dimethyl-4-oxo-3,4-dihydroquinazolin-8-yl)ethyl)amino)pyridinecarboxylic Acid]	71%	87%
C[C@@H](Nc1ccc(Cl)nc1C(=O)O)c1cc(F)cc2c(=O)n(C)c(-c3ccc(F)cn3)nc12 [Compound 74]	74%	85%
